Source: patent US4963553A, “4-[(substituted) alkylcarbonyl]-4,5-dihydro- and -4,5,6,7-tetrahydro-7-[(substituted)phenyl]pyrazolo[1,5-a]pyrimidines” (American Cyanamid Co., priority 1988, dated 1990)
Where a name gives a salt, the structure may show the parent alone.

Key:
[1] = target: T1, human platelet membranes (3H-imipramine receptor) (Homo sapiens, UniProt P31645); assay: 3H-imipramine binding to human platelet membranes
T1 construct: Fresh human platelet concentrates (less than 48 hours old) were obtained from the New York Blood Center; tissue New York Blood Center; host or cells: human blood platelets, membranes
Experimental: The activity of the compounds of the invention as antidepressant agents was further verified# in the following test which measures the ability of a test compound to inhibit 3H-imipramine binding to human platelet membranes.
Platelet membranes were obtained using the procedure described by Wennogle, L. et al., Pharmac. Biochem. Behav., 15. 975 (1981). Fresh human platelet concentrates (less than 48 hours old) were obtained from the New York Blood Center. These concentrates were prepared in a citrate-dextrose anticoagulant using standard techniques. Platelets were washed twice by centrifugation (2500×G, 10 minutes) in 50 volumes of an antiprotease buffer containing 0.005M Tris potassium chloride, 0.12M sodium chloride, 0.05M Tris pH 7.5, 0.025 Units/ml aprotinin, 0.05 μg/m pepstatin, 2×10^-5 bacitracin, 3 mM ethylenediaminetetraacetic acid and 1.0 mM ethyleneglycol-bis (β-aminoethylether)N,N'-tetra-acetic acid. […] All procedures were conducted at 0° C. using plastic laboratory-ware throughout the platelet membrane preparation. Platelets were resuspended in 20 volumes of buffer and sonicated 3 times using 10 second bursts of a Branson sonifier (cell disrupter 350) at setting 6 (standard 3/4 inch horn), keeping the sample on ice throughout the procedure. Platelet membranes were then washed twice at 18,000×G for 20 minutes with 50 volumes of the antiprotease buffer and resuspended to 3.0 mg. protein/ml using the Bradford protein analysis with bovine gamma globulin as standard. Membranes were used immediately or stored frozen in liquid nitrogen.
The displacement of 3H-imipramine binding to human platelet membranes was performed essentially as described by Paul, S. M., et al., Life Sci., 953 (1980) with the following modifications. Membranes (0.3 mg protein) were suspended in antiprotease buffer with both […] 3H-imipramine (New England Nuclear) and displacing drug or buffer in a total volume of 250 #1 in glass test tubes. Samples were incubated for 90 minutes at 0° C., then diluted to 5 ml in 0.12M sodium chloride, 0.005M potassium chloride, 0.05M Tris pH 7.5 (wash buffer) and immediately filtered through GF/B Whatman Filters and washed twice with 5 ml of wash buffer. Filters were counted in a liquid scintillation counter after addition of Beckman HP Scintillant.
Non-specific binding of 3H-imipramine was defined as that fraction (generally 35%) of radioactivity that was not displaced by 10 μM desmethylimipramine. Specific binding was determined by subtraction of this non-specific level from values for total 3H-imipramine binding which were measured by incubating 3H-imipramine in the absence of displacing drug. Compounds were tested in duplicate test tubes at a concentration of 10 μM. Compounds which inhibited binding by more than 50% were considered to be active.

[2] = system: mice (tetrabenazine-induced depression); assay: Tetrabenazine-induced depression (antidepressant); type: in vivo, mouse; parameters: key: Active: A compound is considered active if 3 or more of 10 mice are protected against the tetrabenazine-induced effects; conditions: 25 mg/kg, oral, 10 mice
Experimental: The compounds of the invention are useful as antidepressant agents in warm-blooded animals as verified in the following tests. First, the antidepressant properties of these compounds were tested by measuring their ability to counteract depression induced in animals by the administration of tetrabenazine methanesulfonate. Each test compound was administered orally to 10 mice at a dose of 25 mg/kg of body weight. Thirty minutes later, tetrabenazine methane sulfonate was administered intraperitoneally to each mouse at a dose of 39 mg/kg of body weight, which dose is known to depress markedly the exploratory behavior of normal mice. Thirty minutes later the mice were tested for their exploratory behavior as described by E. Greenblatt and A. C. Osterberg, Toxicology and Applied Pharmacology, 7. 566-578 (1965). A compound is considered active if 3 or more of 10 mice are protected against the tetrabenazine-induced effects.

[3] = system: mice (hypoxic environment); assay: Hypoxic survival test; type: in vivo, mouse (Royal Hart); conditions: intraperitoneal, 10% oxygen, 5 minutes
Summary of the method: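 Groups of 20 Royal Hart mice (6 weeks old) dosed i.p. with compound in saline at 1–200 mg/kg, 30 minutes before exposure to 10% oxygen/90% carbon dioxide; survival scored after 5 minutes. Saline and physostigmine (0.125 mg/kg i.p.) groups run in parallel.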

[4] = system: mice (anoxic induced amnesia); assay: Passive Avoidance Anoxic Induced Amnesia Test; type: in vivo, mouse (Swiss-Webster, middle-aged); conditions: intraperitoneal, vs saline control
Source text: A useful in vivo test associated with decreased neural function in mammals is the Passive Avoidance Anoxic Induced Amnesia Test. This test is used to determine the attenuation of anoxic induced amnesia in mice treated with drug, as compared to saline treated control animals with no drug. A shock-motivated, single trial, step-through passive avoidance procedure is used. Groups of 25 Swiss-Webster, middle-aged mice (9 months of age) are placed singly in the front chamber of a 2-chamber box and are allowed to voluntarily cross into the rear chamber. As soon as the mouse enters the rear chamber, a door automatically traps the animal and a mild electric shock (0.4 mA for 4 seconds) is delivered to its feet. Following the foot shock, the mice are initially placed in an anoxic environment (0% oxygen) for 12 seconds, which quickly induces unconsciousness. […] All testing is performed 24 hours later, and in all cases the mice appear fully recovered from the previous anoxic/hypoxic treatment. […] Control animals are injected intraperitoneally only with saline at 0.01 ml/g of body weight. The latent period prior to entering the rear chamber is recorded for both training and testing sessions. The greater the memory of being shocked, the greater the reluctance to enter into the rear chamber and the higher will be the latent period prior to re-entry. […]

[5] = Mus musculus, ip, 5 min, 100 mg/kg, read-out: % Survivors

T1 sequence (P31645 whole entry): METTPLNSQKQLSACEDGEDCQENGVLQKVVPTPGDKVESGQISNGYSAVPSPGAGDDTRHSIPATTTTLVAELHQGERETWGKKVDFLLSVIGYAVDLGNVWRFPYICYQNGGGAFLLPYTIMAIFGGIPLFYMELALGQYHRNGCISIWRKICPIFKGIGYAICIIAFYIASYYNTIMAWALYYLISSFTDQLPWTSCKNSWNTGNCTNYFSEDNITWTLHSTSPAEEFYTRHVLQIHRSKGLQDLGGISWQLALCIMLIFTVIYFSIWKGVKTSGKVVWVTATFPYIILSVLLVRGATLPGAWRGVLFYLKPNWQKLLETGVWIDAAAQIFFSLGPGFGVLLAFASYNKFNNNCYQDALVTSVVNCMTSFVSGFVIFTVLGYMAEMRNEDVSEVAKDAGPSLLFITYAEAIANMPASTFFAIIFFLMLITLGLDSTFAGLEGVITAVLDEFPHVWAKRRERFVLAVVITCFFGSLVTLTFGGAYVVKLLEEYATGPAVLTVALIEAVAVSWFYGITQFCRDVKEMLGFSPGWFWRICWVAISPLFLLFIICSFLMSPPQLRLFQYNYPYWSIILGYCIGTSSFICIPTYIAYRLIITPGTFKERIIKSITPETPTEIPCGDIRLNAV

COc1cccc(CN2CCN(CC(=O)N3CC=C(c4cccc(C(F)(F)F)c4)n4ncc(C#N)c43)CC2)c1 [Example 20, 4,5-Dihydro-4-[[4-[(3-methoxyphenyl)methyl]-1-piperazinyl]acetyl]-7-[3-(trifluoromethyl)phenyl]pyrazolo[1,5-a]pyrimidine-3-carbonitrile]
inhibition at 10 µM [1]: 78% | Result (protection against tetrabenazine-induced depression) [2]: Active

N#Cc1cnn2c1N(C(=O)CN1CCN(Cc3ccc4c(c3)OCO4)CC1)CC=C2c1cccc(C(F)(F)F)c1 [Example 23, 4-[[4-(1,3-Benzodioxol-5-ylmethyl)-1-piperazinyl]acetyl]-4,5-dihydro-7-[3-(trifluoromethyl)phenyl]pyrazolo[1,5-a]pyrimidine-3-carbonitrile]
inhibition at 10 µM [1]: 81% | Result (protection against tetrabenazine-induced depression) [2]: Active

N#Cc1cnn2c1N(C(=O)CCN1CCN(Cc3ccccc3)CC1)CC=C2c1cccc(C(F)(F)F)c1 [Example 27, 4,5-Dihydro-4-[1-oxo-3-[4-(phenylmethyl)-1-piperazinyl]propyl]-7-[3-(trifluoromethyl)phenyl]pyrazolo[1,5-a]pyrimidine-3-carbonitrile]
inhibition at 10 µM [1]: 80%

CN(C)CCCN1CCN(CC(=O)N2CC=C(c3cccc(C(F)(F)F)c3)n3ncc(C#N)c32)CC1 [Example 33, 4-[[4-[3-(Dimethylamino)propyl]-1-piperazinyl]acetyl]-4,5-dihydro-7-[3-(trifluoromethyl)phenyl]pyrazolo[1,5-a]pyrimidine-3-carbonitrile]
inhibition at 10 µM [1]: 89%

N#Cc1cnn2c1N(C(=O)CN1CCN(Cc3ccc(Cl)cc3)CC1)CC=C2c1cccc(C(F)(F)F)c1 [Example 39, 4-[[4-[(4-Chlorophenyl)methyl]-1-piperazinyl]acetyl]-7-[3-(trifluoromethyl)phenyl]pyrazolo[1,5-a]pyrimidine-3-carbonitrile]
inhibition at 10 µM [1]: 84%

N#Cc1cnn2c1N(C(=O)CN1CCN(CCCOc3ccccc3)CC1)CCC2c1cccc(C(F)(F)F)c1 (centres unmarked) [Example 57, 4,5,6,7-Tetrahydro-4-[[4-(3-phenoxypropyl)-1-piperazinyl]acetyl]-7-[3-(trifluoromethyl)phenyl]pyrazolo[1,5-a]pyrimidine-3-carbonitrile]
inhibition at 10 µM [1]: 57% | responders at 10 mg/kg ([3]; Mus musculus, ip, 5 min, 10 mg/kg, read-out: % Survivors): 15%

N#Cc1cnn2c1N(C(=O)CCN1CCN(Cc3ccccc3)CC1)CC=C2c1cc(Cl)ccc1Cl [Example 71, 7-(2,5-Dichlorophenyl)-4,5-dihydro-4-[1-oxo-3-[4-(phenylmethyl)-1-piperazinyl]propyl]pyrazolo[1,5-a]pyrimidine-3-carbonitrile]
inhibition at 10 µM [1]: 79%

COc1cccc(CN2CCN(CC(=O)N3CC=C(c4cccc(C(F)(F)F)c4)n4ncc(C#N)c43)CC2)c1.Cl.Cl [Example 79, 4,5-Dihydro-4-[[4-[(3-methoxyphenyl)methyl]-1-piperazinyl]acetyl]-7-[3-(trifluoromethyl)phenyl]pyrazolo[1,5-a]pyrimidine-3-carbonitrile, dihydrochloride]
Result (protection against tetrabenazine-induced depression) [2]: Active

N#Cc1cnn2c1N(C(=O)CCN1CCN(Cc3ccc(Cl)cc3)CC1)CC=C2c1cccc(C(F)(F)F)c1 [Example 85, 4-[3-[(4-Chlorophenyl)methyl]-1-piperazinyl]-1-oxopropyl]dihydro-7-[3-(trifluoromethyl)phenyl]pyrazolo[1,5-a]pyrimidine-3-carbonitrile, dihydrochloride]
inhibition at 10 µM [1]: 85%

Cl.N#Cc1cnn2c1N(C(=O)CN1CCN(Cc3ccccc3)CC1)CC=C2c1cccc(C(F)(F)F)c1 [Example 94, 4,5-Dihydro-4-[[4-(phenylmethyl)-1-piperazinyl]acetyl]-7-[3-(trifluoromethyl)phenyl]pyrazolo[1,5-a]pyrimidine-3-carbonitrile, hydrochloride]
% Survivors ([3]; 100 mg/kg): 83% | % Improvement ([4]; 10 mg/kg): 30%

CN(C)CCN1CCN(CC(=O)N2CC=C(c3cccc(C(F)(F)F)c3)n3ncc(C#N)c32)CC1 [Example 97, 4-[[4-[2-(Dimethylamino)ethyl]-1-piperazinyl]acetyl]4,5-dihydro-7-[3-(trifluoromethyl)phenyl]pyrazolo[1,5-a]pyrimidine-3-carbonitrile. dihydrochloride]
inhibition at 10 µM [1]: 72%

N#Cc1cnn2c1N(C(=O)CN1CCN(CC#CCN3CCCC3=O)CC1)CC=C2c1cccc(C(F)(F)F)c1 [Example 109, 4,5-Dihydro-4-[[4-[4-(2-oxo-1-pyrrolidinyl)-2-butynyl]-1-piperazinyl]acetyl]-7-[3-(trifluoromethyl)phenyl]pyrazolo[1.5-a]pyrimidine-3-carbonitrile]
responders at 100 mg/kg [3, 5]: 68% | % Improvement ([4]; 1 mg/kg): 63%

CC1=C(c2ccc(Cl)cc2)n2ncc(C#N)c2N(C(=O)CN2CCN(Cc3cccc(Cl)c3)CC2)C1 [Example 133, 7-(4-Chlorophenyl)-4-[[4-[(3-chlorophenyl)methyl]-1-piperazinyl]acetyl]-4,5-dihydro-6-methylpyrazolo[1,5-a]pyrimidine-3-carbonitrile. dihydrochloride]
responders at 100 mg/kg [3, 5]: 62% | responders at 200 mg/kg ([3]; Mus musculus, ip, 5 min, 200 mg/kg, read-out: % Survivors): 73% | % Improvement ([4]; 10 mg/kg): 66%

CC(c1ccccc1)N1CCN(CC(=O)N2CC=C(c3cccc(C(F)(F)F)c3)n3ncc(C#N)c32)CC1 (centres unmarked) [Example 141]
responders at 25 mg/kg ([3]; Mus musculus, ip, 5 min, 25 mg/kg, read-out: % Survivors): 4% | % Improvement ([4]; 25 mg/kg): 39%

N#Cc1cnn2c1N(C(=O)CN1CCN(Cc3cnn(-c4ccccc4)n3)CC1)CC=C2c1cccc(C(F)(F)F)c1 [Example 146]
responders at 100 mg/kg [3, 5]: 52.5% | % Improvement ([4]; 100 mg/kg): 92%

N#Cc1cnn2c1N(C(=O)CN1CCN(Cc3ccccc3)CC1)CC=C2c1ccccc1 [Example 147, 4,5-Dihydro-7-phenyl-4-[[4-(phenylmethyl)-1-piperazinyl]acetyl]pyrazolo[1,5-a]pyrimidine-3-carbonitrile]
responders at 100 mg/kg [3, 5]: 50% | % Improvement ([4]; 25 mg/kg): 45%
